Laboratory results from ChEMBL document CHEMBL5303304, “EUbOPEN Chemogenomics Library - IncuCyte” (2023).

Tests used:
Assay type in all cases: toxicity, cell-based
U2OS = test: Incucyte cell viability with U2OS; details: human, 10 µM, compound concentration 10 uM
HEK-293T = test: Incucyte cell viability with HEK293T; details: human, 10 µM, compound concentration 10 uM
Fibroblast = test: Incucyte cell viability with human fibroblast; details: 10 µM, compound concentration 10 uM
Note: unitless GR value; below 1 slowed growth and below 0 cell loss.

SMILES	Growth Rate (U2OS; 0 h, replicate number 1)	Growth Rate (U2OS; 18 h, replicate number 1)	Growth Rate (U2OS; 18 h, replicate number 2)	Growth Rate (U2OS; 24 h, replicate number 1)	Growth Rate (U2OS; 24 h, replicate number 2)	Growth Rate (HEK-293T; 6 h, replicate number 1)	Growth Rate (HEK-293T; 6 h, replicate number 2)	Growth Rate (HEK-293T; 12 h, replicate number 1)	Growth Rate (HEK-293T; 12 h, replicate number 2)	Growth Rate (HEK-293T; 18 h, replicate number 1)	Growth Rate (HEK-293T; 18 h, replicate number 2)	Growth Rate (HEK-293T; 24 h, replicate number 2)	Growth Rate (Fibroblast; 6 h, replicate number 1)	Growth Rate (Fibroblast; 6 h, replicate number 2)	Growth Rate (Fibroblast; 12 h, replicate number 1)	Growth Rate (Fibroblast; 12 h, replicate number 2)	Growth Rate (Fibroblast; 18 h, replicate number 1)	Growth Rate (Fibroblast; 18 h, replicate number 2)	Growth Rate (Fibroblast; 24 h, replicate number 1)	Growth Rate (Fibroblast; 24 h, replicate number 2)	further results
COc1c(OCCCN2CCOCC2)ccc2c1N=C(NC(=O)c1cnc(N)nc1)N1CCN=C21 [COPANLISIB]	-0.44	0.98	0.9	0.96	0.79	0.09	-0.34	0.15	-0.17	0.12	-0.05	-0.04	-0.21	-0.38	0.1	-0.18	0.26	0.04	0.41	0.24	Growth Rate (U2OS; 6 h, replicate number 1): 0.74; Growth Rate (HEK-293T; 0 h, replicate number 2): -1; Growth Rate (HEK-293T; 24 h, replicate number 1): 0.18
Cl.O=C(c1ccc(-c2ccc(Cl)cc2)o1)N(Cc1ccccn1)c1ccc(N2CCNCC2)cc1									0.52	0.76	0.43	0.25	-0.62	-1	-1	-0.6		-0.43		-0.32	Growth Rate (U2OS; 0 h, replicate number 2): -0.97; Growth Rate (U2OS; 6 h, replicate number 2): 0.57; Growth Rate (U2OS; 12 h, replicate number 2): 0.87; Growth Rate (HEK-293T; 24 h, replicate number 1): 0.48
Cn1cc(-n2cnc3c(NCc4nc5cc(Cl)c(Cl)cc5[nH]4)nc(N4CCOCC4)nc32)cn1	-0.99	0.1	-0.54	-0.09	-0.53	-0.17	-0.51	-0.21	-0.56	-0.23	-0.48	-0.36	0.08	-0.32	0.37	-0.22	0.46	-0.06	0.54	0	Growth Rate (U2OS; 0 h, replicate number 2): -0.97; Growth Rate (U2OS; 6 h, replicate number 2): -0.74; Growth Rate (U2OS; 12 h, replicate number 1): 0.64; Growth Rate (U2OS; 12 h, replicate number 2): -0.72; Growth Rate (HEK-293T; 0 h, replicate number 1): -0.86; Growth Rate (HEK-293T; 0 h, replicate number 2): 0.65; Growth Rate (HEK-293T; 24 h, replicate number 1): -0.18; Growth Rate (Fibroblast; 0 h, replicate number 1): -1; Growth Rate (Fibroblast; 0 h, replicate number 2): -0.31
CCOC(=O)N1CCC(CN(Cc2ccc(Cl)cc2)Cc2ccc([N+](=O)[O-])s2)C1 (centres undefined) [SR9009]	-0.35					0.39	0.23	0.42	0.27	0.48	0.28	0.35	0.43		0.41	0.2	0.3	0.38	0.48	0.39	Growth Rate (U2OS; 12 h, replicate number 1): 0.94; Growth Rate (HEK-293T; 24 h, replicate number 1): 0.41
CCO[C@@H](Cc1ccc(OCCc2ccc(OS(C)(=O)=O)cc2)cc1)C(=O)O [TESAGLITAZAR]		0.98		0.87		1	0.96		0.68		0.85	0.7	0.95	0.72		0.56	0.64	0.87	0.99		Growth Rate (U2OS; 0 h, replicate number 2): 0.8; Growth Rate (U2OS; 6 h, replicate number 2): 0.99; Growth Rate (HEK-293T; 0 h, replicate number 1): 0.24; Growth Rate (HEK-293T; 0 h, replicate number 2): -0.46; Growth Rate (Fibroblast; 0 h, replicate number 1): 0.92; Growth Rate (Fibroblast; 0 h, replicate number 2): 0.24
Nc1ncnc2c1ccn2[C@@H]1O[C@H]([C@@H](O)c2ccccc2)[C@@H](O)[C@H]1O		0.86	0.91	0.8	0.95	0.8							0.32	0.31	0.69	0.57	0.97		0.81		Growth Rate (U2OS; 12 h, replicate number 2): 1; Growth Rate (HEK-293T; 0 h, replicate number 2): -0.97
CC#CC(=O)N1CCN(c2nc(-c3ccc(Oc4ccccc4)cc3)c(C(N)=O)s2)CC1	0.94	0.66	0.94	0.69	0.94	0.41	0.66	0.43	0.74	0.61	0.6	0.64	0.87	0.18	0.5	0.22	0.52	0.4	0.32	0.44	Growth Rate (U2OS; 6 h, replicate number 1): 0.5; Growth Rate (U2OS; 6 h, replicate number 2): 0.82; Growth Rate (U2OS; 12 h, replicate number 1): 0.55; Growth Rate (U2OS; 12 h, replicate number 2): 0.92; Growth Rate (HEK-293T; 0 h, replicate number 2): -0.85; Growth Rate (HEK-293T; 24 h, replicate number 1): 0.66; Growth Rate (Fibroblast; 0 h, replicate number 1): 0.51; Growth Rate (Fibroblast; 0 h, replicate number 2): 0.75
Cc1nn(C)c(COc2ccc(N3CCN(S(=O)(=O)N(C)C)CC3)cc2)c1-c1cccc2c(CCCOc3cccc4ccccc34)c(C(=O)O)n(CCN3CCOCC3)c12	0.4	0.86	0.92	0.86	0.98	0.99	0.84	0.93		0.93			0.53				0.58		0.76		Growth Rate (U2OS; 6 h, replicate number 1): 0.3; Growth Rate (U2OS; 6 h, replicate number 2): 0.93; Growth Rate (U2OS; 12 h, replicate number 1): 0.85; Growth Rate (U2OS; 12 h, replicate number 2): 0.97; Growth Rate (HEK-293T; 0 h, replicate number 1): 0.38
COc1ccc(CCN(C)CCCC(C#N)(c2cc(OC)c(OC)c(OC)c2)C(C)C)cc1OC.Cl (centres undefined) [GALLOPAMIL HYDROCHLORIDE]					1	0.31		0.9	0.97		0.94	0.94	-0.5	0.16	0.03	0.12		0.41		0.73	Growth Rate (U2OS; 0 h, replicate number 2): -0.88; Growth Rate (Fibroblast; 0 h, replicate number 1): -0.26
